PMC10999558, “Analyzing resistome in soil and Human gut: a study on the characterization and risk evaluation of antimicrobial peptide resistance” (Frontiers in Microbiology, 2024)

Assays:
Type in all cases: cell-based, Escherichia coli
Details in all cases: MHB, 37°C, 24 h, triplicate
E. coli JM109 = assay: MIC, broth microdilution, retransformed E. coli JM109
Description: (§1) Escherichia coli DH5α, E. coli BL21(DE3), and E. coli JM109 were utilized in this study.
(§2) The MICs were determined using the broth microdilution method in 96-well microtiter plates ([Wiegand et al., 2008]). In brief, a 1:100 dilution of the mid-exponential phase bacterial culture (OD600 = 0.5), consisting of 5 μL (1 × 10^5 CFU/mL), was introduced into polypropylene 96-well plates. These plates contained a two-fold dilution series of AMP in a total volume of 100 μL MHB per well. The incubation of the plates occurred at 37°C in a humidity chamber. The MIC was identified as the lowest concentration that hindered visible bacterial growth after 24 h of incubation. Each experiment was conducted in triplicate.
(§3) Before washing down the colonies, we randomly selected two clones from each plate containing distinct AMP. Colony PCRs were conducted using M13 primer pairs to validate the presence of inserts and determine their sizes. The selected colonies were then subjected to sequencing. The specific details are provided in Supplementary Table S2. Following that, plasmids were isolated using the Plasmid Midiprep Kit (Zomanbio, ZP103) following the manufacturer’s guidelines. After the plasmids were successfully reintroduced into E. coli JM109 and E. coli BL 21(DE3), the MICs of the transformed strains against the AMP used for selection were tested. This testing process was carried out in triplicate.
(§4) Following validation, the colonies displaying resistance underwent additional testing via MIC assessments for the remaining four AMPs that were not employed during the selection process. This experimental procedure was carried out in triplicate.

E. coli DH5α = assay: MIC, broth microdilution, E. coli DH5α carrying pUC118 or resistance-conferring plasmids
Description: as §1, §2, §4

E. coli BL21(DE3) = assay: MIC, broth microdilution, retransformed E. coli BL21(DE3)
Description: as §1, §2, §3, §4

Colistin [CST]
MIC (E. coli JM109; colony pUC118-FCST1-JM109 (feces insert 1 selected against colistin)): 0.5 µg/mL
MIC (E. coli JM109; colony pUC118-FCST2-JM109 (feces insert 2 selected against colistin)): 1 µg/mL
MIC (E. coli JM109; colony pUC118-FGQ1-JM109 (feces insert 1 selected against melittin)): 0.5 µg/mL
MIC (E. coli JM109; colony pUC118-FGQ2-JM109 (feces insert 2 selected against melittin)): 0.5 µg/mL
MIC (E. coli JM109; colony pUC118-FIB1-JM109 (feces insert 1 selected against iseganan)): 0.25 µg/mL
MIC (E. coli JM109; colony pUC118-FIB2-JM109 (feces insert 2 selected against iseganan)): 0.5 µg/mL
MIC (E. coli JM109; colony pUC118-FPB1-JM109 (feces insert 1 selected against polymyxin B)): 1 µg/mL
MIC (E. coli JM109; colony pUC118-FPB2-JM109 (feces insert 2 selected against polymyxin B)): 0.5 µg/mL
MIC (E. coli JM109; colony pUC118-FSA1-JM109 (feces insert 1 selected against cathelicidin-DM)): 2 µg/mL
MIC (E. coli JM109; colony pUC118-FSA2-JM109 (feces insert 2 selected against cathelicidin-DM)): 0.5 µg/mL
MIC (E. coli JM109; colony pUC118-JM109 (control, no insert)): 0.25 µg/mL
MIC (E. coli JM109; colony pUC118-SCST1-JM109 (soil insert 1 selected against colistin)): 0.5 µg/mL
MIC (E. coli JM109; colony pUC118-SCST2-JM109 (soil insert 2 selected against colistin)): 0.5 µg/mL
MIC (E. coli JM109; colony pUC118-SGQ1-JM109 (soil insert 1 selected against melittin)): 0.25 µg/mL
MIC (E. coli JM109; colony pUC118-SGQ2-JM109 (soil insert 2 selected against melittin)): 0.25 µg/mL
MIC (E. coli JM109; colony pUC118-SIB1-JM109 (soil insert 1 selected against iseganan)): 0.25 µg/mL
MIC (E. coli JM109; colony pUC118-SIB2-JM109 (soil insert 2 selected against iseganan)): 0.25 µg/mL
MIC (E. coli JM109; colony pUC118-SPB1-JM109 (soil insert 1 selected against polymyxin B)): 0.25 µg/mL
MIC (E. coli JM109; colony pUC118-SPB2-JM109 (soil insert 2 selected against polymyxin B)): 0.5 µg/mL
MIC (E. coli JM109; colony pUC118-SSA1-JM109 (soil insert 1 selected against cathelicidin-DM)): 0.5 µg/mL
MIC (E. coli JM109; colony pUC118-SSA2-JM109 (soil insert 2 selected against cathelicidin-DM)): 0.25 µg/mL
MIC (E. coli DH5α; E. coli DH5α containing pUC118 plasmids): 0.25 µg/mL
MIC (E. coli DH5α; colony pUC118-DH5α (control, no insert)): 0.25 µg/mL
MIC (E. coli DH5α; colony pUC118-FCST1-DH5α (feces insert 1 selected against colistin)): 0.5 µg/mL
MIC (E. coli DH5α; colony pUC118-FCST2-DH5α (feces insert 2 selected against colistin)): 0.5 µg/mL
MIC (E. coli DH5α; colony pUC118-FGQ1-DH5α (feces insert 1 selected against melittin)): 0.5 µg/mL
MIC (E. coli DH5α; colony pUC118-FGQ2-DH5α (feces insert 2 selected against melittin)): 0.5 µg/mL
MIC (E. coli DH5α; colony pUC118-FIB1-DH5α (feces insert 1 selected against iseganan)): 0.25 µg/mL
MIC (E. coli DH5α; colony pUC118-FIB2-DH5α (feces insert 2 selected against iseganan)): 1 µg/mL
MIC (E. coli DH5α; colony pUC118-FPB1-DH5α (feces insert 1 selected against polymyxin B)): 2 µg/mL
MIC (E. coli DH5α; colony pUC118-FPB2-DH5α (feces insert 2 selected against polymyxin B)): 1 µg/mL
MIC (E. coli DH5α; colony pUC118-FSA1-DH5α (feces insert 1 selected against cathelicidin-DM)): 0.5 µg/mL
MIC (E. coli DH5α; colony pUC118-FSA2-DH5α (feces insert 2 selected against cathelicidin-DM)): 0.5 µg/mL
MIC (E. coli DH5α; colony pUC118-SCST1-DH5α (soil insert 1 selected against colistin)): 0.5 µg/mL
MIC (E. coli DH5α; colony pUC118-SCST2-DH5α (soil insert 2 selected against colistin)): 1 µg/mL
MIC (E. coli DH5α; colony pUC118-SGQ1-DH5α (soil insert 1 selected against melittin)): 0.25 µg/mL
MIC (E. coli DH5α; colony pUC118-SGQ2-DH5α (soil insert 2 selected against melittin)): 0.25 µg/mL
MIC (E. coli DH5α; colony pUC118-SIB1-DH5α (soil insert 1 selected against iseganan)): 0.25 µg/mL
MIC (E. coli DH5α; colony pUC118-SIB2-DH5α (soil insert 2 selected against iseganan)): 0.25 µg/mL
MIC (E. coli DH5α; colony pUC118-SPB1-DH5α (soil insert 1 selected against polymyxin B)): 0.25 µg/mL
MIC (E. coli DH5α; colony pUC118-SPB2-DH5α (soil insert 2 selected against polymyxin B)): 0.5 µg/mL
MIC (E. coli DH5α; colony pUC118-SSA1-DH5α (soil insert 1 selected against cathelicidin-DM)): 0.5 µg/mL
MIC (E. coli DH5α; colony pUC118-SSA2-DH5α (soil insert 2 selected against cathelicidin-DM)): 1 µg/mL
MIC (E. coli BL21(DE3); colony pUC118-BL21(DE3) (control, no insert)): 1 µg/mL
MIC (E. coli BL21(DE3); colony pUC118-FCST1-BL21(DE3) (feces insert 1 selected against colistin)): 2 µg/mL
MIC (E. coli BL21(DE3); colony pUC118-FCST2-BL21(DE3) (feces insert 2 selected against colistin)): 2 µg/mL
MIC (E. coli BL21(DE3); colony pUC118-FGQ1-BL21(DE3) (feces insert 1 selected against melittin)): 2 µg/mL
MIC (E. coli BL21(DE3); colony pUC118-FGQ2- BL21(DE3) (feces insert 2 selected against melittin)): 2 µg/mL
MIC (E. coli BL21(DE3); colony pUC118-FIB1-BL21(DE3) (feces insert 1 selected against iseganan)): 1 µg/mL
MIC (E. coli BL21(DE3); colony pUC118-FIB2-BL21(DE3) (feces insert 2 selected against iseganan)): 2 µg/mL
MIC (E. coli BL21(DE3); colony pUC118-FPB1-BL21(DE3) (feces insert 1 selected against polymyxin B)): 4 µg/mL
MIC (E. coli BL21(DE3); colony pUC118-FPB2-BL21(DE3) (feces insert 2 selected against polymyxin B)): 2 µg/mL
MIC (E. coli BL21(DE3); colony pUC118-FSA1-BL21(DE3) (feces insert 1 selected against cathelicidin-DM)): 2 µg/mL
MIC (E. coli BL21(DE3); colony pUC118-FSA2-BL21(DE3) (feces insert 2 selected against cathelicidin-DM)): 2 µg/mL
MIC (E. coli BL21(DE3); colony pUC118-SCST1-BL21(DE3) (soil insert 1 selected against colistin)): 2 µg/mL
MIC (E. coli BL21(DE3); colony pUC118-SCST2-BL21(DE3) (soil insert 2 selected against colistin)): 2 µg/mL
MIC (E. coli BL21(DE3); colony pUC118-SGQ1-BL21(DE3) (soil insert 1 selected against melittin)): 1 µg/mL
MIC (E. coli BL21(DE3); colony pUC118-SGQ2-BL21(DE3) (soil insert 2 selected against melittin)): 1 µg/mL
MIC (E. coli BL21(DE3); colony pUC118-SIB1-BL21(DE3) (soil insert 1 selected against iseganan)): 1 µg/mL
MIC (E. coli BL21(DE3); colony pUC118-SIB2-BL21(DE3) (soil insert 2 selected against iseganan)): 1 µg/mL
MIC (E. coli BL21(DE3); colony pUC118-SPB1-BL21(DE3) (soil insert 1 selected against polymyxin B)): 1 µg/mL
MIC (E. coli BL21(DE3); colony pUC118-SPB2-BL21(DE3) (soil insert 2 selected against polymyxin B)): 2 µg/mL
MIC (E. coli BL21(DE3); colony pUC118-SSA1-BL21(DE3) (soil insert 1 selected against cathelicidin-DM)): 2 µg/mL
MIC (E. coli BL21(DE3); colony pUC118-SSA2-BL21(DE3) (soil insert 2 selected against cathelicidin-DM)): 2 µg/mL
